In US10675293B2, “Nucleoside agents for the reduction of the deleterious activity of extended nucleotide repeat containing genes” (The Board of Trustees of the Leland Stanford Junior …, priority 2015, dated 2020):

How the values were obtained:
[1] = molecular target: T1, Supt4h-GL1 / NGN-GL2 interaction (Homo sapiens, UniProt O00267+P63272); test: Split Gaussia luciferase complementation assay in M2-8 (HEK-293) cells; type: cell-based; conditions: M2-8 cells, RSL1 150 nM
T1 construct: the amino terminal domain of Supt5h (NGN); expressed in transfected cells; host or cells: M2-8, a clone of 293-R1 (HEK 293), RSL1-induced
Experimental: ii: M2-8 is a cloned 293-R1 cell which can inducibly express pNEBR-X1-Supt4h-G1-NGN-G2 by addition of RSL1. Two point mutations (M431 and M1101) were introduced to the GL1 and GL2 for better stability according to “A high-throughput cell-based Gaussia luciferase reporter assay for identifying modulators of fibulin-3 secretion” published on J Biomol Screen. 2013 July; 18(6):647-58. The cell line was selected by Hygromycin.
Plasmids harboring the Gluc1 and Gluc2 were co-transfected in a 1:1 ratio into 293-R1 cells plated on tissue culture treated 24-well plates using Lipofectamine 2000 according to the manufacturer's instruction. […] Signal intensities (integrated 100 ms) were read on Tecan Infinite M200 or M1000.
Human genes encoding the Supt4h protein or the amino terminal domain of Supt5h (NGN) were each fused with genes that encode subunits (GLuc1 or GLuc2) of Gaussia princeps luciferase to generate Supt4h-GL1 and NGN-GL2. […] The Gausssia luciferase substrate, native Coelenterazine, was added at a final concentration of 10 μg/ml to extracts of cells containing the indicated constructs and the magnitude of luminescence was determined using a luminometer (Tecan Infinite M200) that detects light emitted by luciferase. […] The luciferase activity that is detected is very specific and results only from interaction between the Supt4h and NGN. […]

Q20-GFP = test: PolyQ-tagged GFP reporter in HEK293 cells, Q20-GFP; type: cell-based; conditions: higher concentration, 48 hours after transfection
From the text: (§1) CAG repeats and part of the flanking region in the first exon of Htt gene were PCR amplified from cDNA of HD patient lymphoblastoid cells containing one normal and one mutant allele (Q22 and Q44) with additional flanking restriction enzyme sites NheI. The PCR fragments were than in-frame fused with pEGFP-C1 at the end of the EGFP gene to express polyQ tagged GFP.
(§2) Normal length of poly Q (Q20) and pathogenic length of poly Q(Q44) were in-frame fused at the amino-terminus of eGFPC1 protein to generate Q44- and Q20-GFP (FIG. 8A). The plasmid carrying the polyQ tagged GFP was transfected into HEK 293 cells with greater than 90% transfection efficiency.
(§3) HEK293 cells were transiently transfected with the above mentioned GFP constructs. Five hours after transfection, cells were split among the wells of a 24-well plate and various concentrations of HD101 were added into the wells. 48 hours after transfection, cells were washed with PBS, fixed with 4% paraformaldehyde, and then nuclear stained with DAPI. The cell images were taken by fluorescent microscope (FIG. 9A) and the GFP and DAPI intensity of each field were quantitated using software Image Pro 6.2.

mutant Htt gene = test: RT-PCR of Htt mRNA in Hdh Q111/Q111 striatal cells; type: cell-based, mouse; conditions: compared to mock control
Experimental: Tet-on HeLa cells (Clontech Laboratories), and stable line 2-PN4 and 21-VS were cultured in DMEM (Gibco) supplemented with 10% Tet-off fetal bovine serum (Gibco) at 37° C. with 5% CO2. Hdh Q7/Q7 (mouse), Hdh Q111/Q111 (mouse) were cultured in DMEM (HyClone) supplemented with 10% fetal bovine serum at 33° C. with 5% C02.
Total RNA was extracted from murine neuronal cells using TRI Reagent (Sigma). For cDNA conversion, 2 μg of total RNA was mixed with 5 μM random primer, 5 μM SnRNA U6 rt-PCR primer and 500 μM dNTPs, incubated at 65° C. for 5 min and then chilled on ice. After addition of First-Strand Buffer, DTT (Cf=10 mM) and 1 μl reverse transcriptase (Invitrogen), the reaction was carried out at 42° C. for 1 hr. Equal volumes of cDNA products were PCR amplified and resolved on 2.5% agarose gels to determine the abundance of Htt transcripts after normalization with U6 or 18S ribosomal RNA.

Q44-GFP = test: PolyQ-tagged GFP reporter in HEK293 cells, Q44-GFP; type: cell-based; conditions: 48 hours after transfection
From the text: as §1, §2, §3

O=c1cnn([C@@H]2O[C@H](CO)[C@@H](O)[C@H]2O)c(=O)[nH]1 [HD101, 6-Azauridine]
inhibition of Supt4h/NGN interaction (luciferase activity) [1]: inhibiting the interaction between Supt4h/NGN | Q20-GFP expression (GFP intensity normalized with DAPI) (Q20-GFP): down regulating both Q20 and Q44-GFP significantly | Htt mRNA transcribed from mutant allele (mutant Htt gene): down-regulates the expression of mutant Htt gene | Q44-GFP expression (GFP intensity normalized with DAPI) (Q44-GFP; higher concentration): down regulating both Q20 and Q44-GFP significantly | Q44-GFP expression (GFP intensity normalized with DAPI) (Q44-GFP; low concentration): down regulates
